Patent US20200157048A1, “(2E,4E)-5-PHENYL-PENTA-2,4-DIEN-1-ONE DERIVATIVE” (BIOWAY., INC, priority 2018, published 2020)

Target: T1, SIRT1 (Homo sapiens, UniProt Q96EB6)
T1 construct: purchased Cayman (Ann Arbor, Mich., USA)
T1 sequence (Q96EB6 1-747): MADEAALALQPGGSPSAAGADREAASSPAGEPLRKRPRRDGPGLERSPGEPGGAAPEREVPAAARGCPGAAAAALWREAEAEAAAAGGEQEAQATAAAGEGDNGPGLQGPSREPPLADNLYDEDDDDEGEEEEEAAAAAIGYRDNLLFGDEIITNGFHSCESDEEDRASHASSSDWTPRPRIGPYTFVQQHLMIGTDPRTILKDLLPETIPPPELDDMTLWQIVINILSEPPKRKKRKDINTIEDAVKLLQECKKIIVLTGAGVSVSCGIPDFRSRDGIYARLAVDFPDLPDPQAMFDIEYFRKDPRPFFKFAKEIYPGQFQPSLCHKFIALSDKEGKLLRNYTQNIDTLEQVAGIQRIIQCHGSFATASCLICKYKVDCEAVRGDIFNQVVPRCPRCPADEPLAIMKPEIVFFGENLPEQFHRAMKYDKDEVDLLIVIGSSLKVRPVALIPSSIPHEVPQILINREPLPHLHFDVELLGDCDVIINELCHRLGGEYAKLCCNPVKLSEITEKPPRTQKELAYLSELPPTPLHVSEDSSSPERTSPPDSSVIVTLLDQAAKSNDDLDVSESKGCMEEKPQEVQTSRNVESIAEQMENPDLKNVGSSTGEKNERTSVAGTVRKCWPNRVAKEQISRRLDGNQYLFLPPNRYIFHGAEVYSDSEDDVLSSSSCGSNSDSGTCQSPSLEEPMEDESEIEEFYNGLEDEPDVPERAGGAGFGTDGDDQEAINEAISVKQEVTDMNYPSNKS
Assay: SIRT1 direct fluorescent assay
Format: biochemical
Conditions: 20 μM
Procedure: All materials were provided from a Sirt1 direct fluorescent screening assay kit (Cayman, Ann Arbor, Mich., USA).
SIRT1, p53 conjugated aminomethyl coumarin (AMC) protein, and 3 mM NAD^+ were added to a diluted analysis buffer (50 mM Tris-HCl, pH 8.0, 137 mM NaCl, 2.7 mM KCl, and 1 mM MgCl2).
25 μL of the analysis buffer, 5 μL of diluted SIRT1, and 5 μL of a solvent were added to each of three 100% initial activity wells of a 96-well plate.
30 μL of the analysis buffer and 5 μL of a solvent were added to each of three background wells of the 96-well plate.
25 μL of the analysis buffer, 5 μL of diluted SIRT1, and 5 μL of a diluted test compound were added to each of three sample wells of the 96-well plate. The final DMSO concentration was less than 2%.
15 μL of a 3 mM NAD^+-containing substrate solution was added to all wells to begin the reaction. The 96-well plate was covered with a plate cover, and then incubated in a shaker at room temperature (25 to 30° C.) for 45 minutes.
A stop/developing solution was prepared. To prepare the final 5 mL solution, 200 μL of nicotinamide (NAM, Sigma-Aldrich) was added to a color developing powder weighing 30 mg, 4.8 mL of a diluted analysis buffer was added thereto, and the resulting mixture was stirred until the powder became a solution.
The plate cover was removed, and 50 μL of the stop/developing solution was added to each well.
The 96-well plate was covered with a plate cover, and incubated at room temperature (25 to 30° C.) for 30 minutes.
The plate cover was removed, and the plate was read using Cytation 5 at an excitation wavelength of 360 nm and an emission wavelength of 450 nm.
The mean fluorescence of each sample was measured.
The fluorescence of the background wells was subtracted from the fluorescence of the 100% initial activity wells and sample wells.
To determine the percent of each sample, each sample value was subtracted from the 100% initial activity value, and the resulting value was divided by the 100% initial activity value and then multiplied by 100 and added to 100, which was expressed as a percentage.

increase of SIRT1 activity (FIG. 18): about 20%
Compound: CSc1ccc(/C=C/C=C/C(=O)N2CCCCC2)cc1 [YU2014, (2E,4E)-5-(4-(methylthio)phenyl)-1-(piperidine-1-yl)penta-2,4-dien-1-one]
